This note sets out measurements from ChEMBL document CHEMBL5715952 (Oncotarget, 2015).

Test [1] is described as follows: Inhibition of CAMKK in human RPMI-8226 cells assessed as reduction of cell growth incubated for 72 hrs by CellTiter 96 aqueous one solution cell proliferation assay. In kind it is cell-based. The conditions noted are these: RPMI-8226, 72 h.
The nature of test [2]: Inhibition of CAMKK in bortezomib Resistant human RPMI-8226 cells assessed as reduction of cell growth incubated for 72 hrs by CellTiter 96 aqueous one solution cell proliferation assay. It is filed as cell-based. The conditions noted are these: Bortezomib-resistant RPMI-8226, 72 h.
Test [3] can be described thus: Inhibition of CAMKK in Melphalan Resistant human RPMI-8226 cells assessed as reduction of cell growth incubated for 72 hrs by CellTiter 96 aqueous one solution cell proliferation assay. It is filed as cell-based. As to conditions: Melphalan-resistant RPMI-8226 cell.
Test [4] is described as follows: Inhibition of CAMKK in human ANBL-6 cells assessed as reduction of cell growth incubated for 72 hrs by CellTiter 96 aqueous one solution cell proliferation assay. It is filed as cell-based. As to conditions: ANBL-6, 72 h.
Test [5] is described as follows: Inhibition of CAMKK in human bortezomib-resistant ANBL6 cells assessed as reduction of cell growth incubated for 72 hrs by CellTiter 96 aqueous one solution cell proliferation assay. It is filed as cell-based.
Test [6] in a line: Inhibition of CAMKK in human U-266 cells assessed as reduction of cell growth incubated for 72 hrs by CellTiter 96 aqueous one solution cell proliferation assay. In kind it is cell-based. As to conditions: U-266, 72 h.
A short description of test [7]: Ratio of IC50 for inhibition of CAMKK in human RPMI-8226 cells assessed as reduction of cell viability to IC50 for inhibition of CAMKK in human melphalan-resistant RPMI-8226 cells assessed as reduction of cell viability. As to conditions: time 72 hrs; condition multiple myeloma.
A short description of test [8]: Ratio of IC50 for inhibition of CAMKK in human RPMI-8226 cells assessed as reduction of cell viability to IC50 for inhibition of CAMKK in human RPMI-8226/BR resistant cells assessed as reduction of cell viability. As to conditions: condition multiple myeloma.
Test [9] is described as follows: Ratio of IC50 for inhibition of CAMKK in human ANBL6 cells assessed as reduction of cell viability to IC50 for inhibition of CAMKK in human ANBL6/BR resistant cells assessed as reduction of cell viability. As to conditions: condition multiple myeloma.
The nature of test [10]: Inhibition of B-RAF-V600E/pERK in human RPMI-8226 cells assessed as reduction of cell growth incubated for 72 hrs by CellTiter 96 aqueous one solution cell proliferation assay. In kind it is cell-based. As to conditions: RPMI-8226, 72 h.
Test [11] can be described thus: Inhibition of B-RAFV600E/pERK in bortezomib Resistant human RPMI-8226 cells assessed as reduction of cell growth incubated for 72 hrs by CellTiter 96 aqueous one solution cell proliferation assay. It is filed as cell-based. As to conditions: Bortezomib-resistant RPMI-8226, 72 h.
Test [12] is described as follows: Inhibition of B-RAFV600E/pERK in Melphalan Resistant human RPMI-8226 cells assessed as reduction of cell growth incubated for 72 hrs by CellTiter 96 aqueous one solution cell proliferation assay. In kind it is cell-based. As to conditions: Melphalan-resistant RPMI-8226 cell.
The nature of test [13]: Inhibition of B-RAFV600E/pERK in human ANBL-6 cells assessed as reduction of cell growth incubated for 72 hrs by CellTiter 96 aqueous one solution cell proliferation assay. It is filed as cell-based. As to conditions: ANBL-6, 72 h.
Test [14] in a line: Inhibition of B-RAFV600E/pERK in human bortezomib-resistant ANBL6 cells assessed as reduction of cell growth incubated for 72 hrs by CellTiter 96 aqueous one solution cell proliferation assay. It is filed as cell-based.
Test [15] is described as follows: Inhibition of B-RAFV600E/pERK in human U-266 cells assessed as reduction of cell growth incubated for 72 hrs by CellTiter 96 aqueous one solution cell proliferation assay. In kind it is cell-based. The conditions noted are these: U-266, 72 h.
A short description of test [16]: Ratio of IC50 for inhibition of B-RAFV600E/pERK in human RPMI-8226 cells assessed as reduction of cell viability to IC50 for inhibition of B-RAFV600E/pERK in human melphalan-resistant RPMI-8226 cells assessed as reduction of cell viability. The conditions noted are these: time 72 hrs; condition multiple myeloma.
Test [17] in a line: Ratio of IC50 for inhibition of B-RAFV600E/pERK in human RPMI-8226 cells assessed as reduction of cell viability to IC50 for inhibition of B-RAFV600E/pERK in human RPMI-8226/BR resistant cells assessed as reduction of cell viability. As to conditions: condition multiple myeloma.
A short description of test [18]: Ratio of IC50 for inhibition of B-RAFV600E/pERK in human ANBL6 cells assessed as reduction of cell viability to IC50 for inhibition of B-RAFV600E/pERK in human ANBL6/BR resistant cells assessed as reduction of cell viability. As to conditions: condition multiple myeloma.
The nature of test [19]: Inhibition of c-KIT/VEGFR1/B-Raf/RET/PDGFR in human RPMI-8226 cells assessed as reduction of cell growth incubated for 72 hrs by CellTiter 96 aqueous one solution cell proliferation assay. It is filed as cell-based. As to conditions: RPMI-8226, 72 h.
The nature of test [20]: Inhibition of c-KIT/VEGFR2/B-Raf/RET/PDGFR in human RPMI-8226 cells assessed as reduction of cell growth incubated for 72 hrs by CellTiter 96 aqueous one solution cell proliferation assay. It is filed as cell-based. The conditions noted are these: RPMI-8226, 72 h.
Test [21] in a line: Inhibition of c-KIT/VEGFR2/B-Raf/RET/PDGFR in bortezomib Resistant human RPMI-8226 cells assessed as reduction of cell growth incubated for 72 hrs by CellTiter 96 aqueous one solution cell proliferation assay. In kind it is cell-based. The conditions noted are these: Bortezomib-resistant RPMI-8226, 72 h.
Test [22] can be described thus: Inhibition of c-KIT/VEGFR1/B-Raf/RET/PDGFR in bortezomib Resistant human RPMI-8226 cells assessed as reduction of cell growth incubated for 72 hrs by CellTiter 96 aqueous one solution cell proliferation assay. The conditions noted are these: Bortezomib-resistant RPMI-8226, 72 h. It is filed as cell-based.
A short description of test [23]: Inhibition of c-KIT/VEGFR2/B-Raf/RET/PDGFR in Melphalan Resistant human RPMI-8226 cells assessed as reduction of cell growth incubated for 72 hrs by CellTiter 96 aqueous one solution cell proliferation assay. As to conditions: Melphalan-resistant RPMI-8226 cell. It is filed as cell-based.
A short description of test [24]: Inhibition of c-KIT/VEGFR1/B-Raf/RET/PDGFR in Melphalan Resistant human RPMI-8226 cells assessed as reduction of cell growth incubated for 72 hrs by CellTiter 96 aqueous one solution cell proliferation assay. The conditions noted are these: Melphalan-resistant RPMI-8226 cell. It is filed as cell-based.
Test [25] can be described thus: Inhibition of c-KIT/VEGFR2/B-Raf/RET/PDGFR in human ANBL-6 cells assessed as reduction of cell growth incubated for 72 hrs by CellTiter 96 aqueous one solution cell proliferation assay. In kind it is cell-based. As to conditions: ANBL-6, 72 h.
Test [26] is described as follows: Inhibition of c-KIT/VEGFR1/B-Raf/RET/PDGFR in human ANBL-6 cells assessed as reduction of cell growth incubated for 72 hrs by CellTiter 96 aqueous one solution cell proliferation assay. In kind it is cell-based. As to conditions: ANBL-6, 72 h.
The nature of test [27]: Inhibition of c-KIT/VEGFR2/B-Raf/RET/PDGFR in human bortezomib-resistant ANBL6 cells assessed as reduction of cell growth incubated for 72 hrs by CellTiter 96 aqueous one solution cell proliferation assay. It is filed as cell-based.
The nature of test [28]: Inhibition of c-KIT/VEGFR1/B-Raf/RET/PDGFR in human bortezomib-resistant ANBL6 cells assessed as reduction of cell growth incubated for 72 hrs by CellTiter 96 aqueous one solution cell proliferation assay. In kind it is cell-based.
Test [29] in a line: Inhibition of c-KIT/VEGFR2/B-Raf/RET/PDGFR in human U-266 cells assessed as reduction of cell growth incubated for 72 hrs by CellTiter 96 aqueous one solution cell proliferation assay. The conditions noted are these: U-266, 72 h. It is filed as cell-based.
The nature of test [30]: Inhibition of c-KIT/VEGFR1/B-Raf/RET/PDGFR in human U-266 cells assessed as reduction of cell growth incubated for 72 hrs by CellTiter 96 aqueous one solution cell proliferation assay. It is filed as cell-based. The conditions noted are these: U-266, 72 h.
Test [31] can be described thus: Ratio of IC50 for inhibition of c-KIT/VEGFR1/B-Raf/RET/PDGFR in human RPMI-8226 cells assessed as reduction of cell viability to IC50 for inhibition of c-KIT/VEGFR1/B-Raf/RET/PDGFR in human melphalan-resistant RPMI-8226 cells assessed as reduction of cell viability. The conditions noted are these: time 72 hrs; condition multiple myeloma.
Test [32] is described as follows: Ratio of IC50 for inhibition of c-KIT/VEGFR2/B-Raf/RET/PDGFR in human RPMI-8226 cells assessed as reduction of cell viability to IC50 for inhibition of c-KIT/VEGFR2/B-Raf/RET/PDGFR in human melphalan-resistant RPMI-8226 cells assessed as reduction of cell viability. The conditions noted are these: time 72 hrs; condition multiple myeloma.
Test [33] can be described thus: Ratio of IC50 for inhibition of c-KIT/VEGFR1/B-Raf/RET/PDGFR in human RPMI-8226 cells assessed as reduction of cell viability to IC50 for inhibition of c-KIT/VEGFR1/B-Raf/RET/PDGFR in human RPMI-8226/BR resistant cells assessed as reduction of cell viability. As to conditions: condition multiple myeloma.
Test [34] is described as follows: Ratio of IC50 for inhibition of c-KIT/VEGFR2/B-Raf/RET/PDGFR in human RPMI-8226 cells assessed as reduction of cell viability to IC50 for inhibition of c-KIT/VEGFR2/B-Raf/RET/PDGFR in human RPMI-8226/BR resistant cells assessed as reduction of cell viability. The conditions noted are these: condition multiple myeloma.
Test [35] in a line: Ratio of IC50 for inhibition of c-KIT/VEGFR1/B-Raf/RET/PDGFR in human ANBL6 cells assessed as reduction of cell viability to IC50 for inhibition of c-KIT/VEGFR1/B-Raf/RET/PDGFR in human ANBL6/BR resistant cells assessed as reduction of cell viability. The conditions noted are these: condition multiple myeloma.
A short description of test [36]: Ratio of IC50 for inhibition of c-KIT/VEGFR2/B-Raf/RET/PDGFR in human ANBL6 cells assessed as reduction of cell viability to IC50 for inhibition of c-KIT/VEGFR2/B-Raf/RET/PDGFR in human ANBL6/BR resistant cells assessed as reduction of cell viability. The conditions noted are these: condition multiple myeloma.

Consider `O=C(O)c1ccc2c3c1cccc3c(=O)n1c3ccccc3nc21`, for which the IC50 in test [1], in test [2], in test [3], in test [4], in test [5] and in [6] was 10 µM each time. Moreover, the “Ratio IC50” value in [7], in test [8] and in [9] was 1 each time.

In the case of `OCCn1cc(-c2ccc3c(c2)CC/C3=N\O)c(-c2ccncc2)n1`, the IC50 in test [10], in test [11], in test [12], in [13], in test [14] and in [15] was 10 µM throughout. In addition, the “Ratio IC50” value in test [16], in [17] and in [18] was 1 throughout.

Consider `CNC(=O)c1cc(Oc2ccc(NC(=O)Nc3ccc(Cl)c(C(F)(F)F)c3)c(F)c2)ccn1` [REGORAFENIB], for which the IC50 in test [19] is 4.07 µM; in [20] it was 4.07 µM; in test [21] it was 2.76 µM; in [22], 2.76 µM; in test [23], 3.55 µM; in test [24], 3.55 µM. The IC50 worked out at 9.12 µM in test [25]; 9.12 µM in test [26]; 6.17 µM in [27]; 6.17 µM in test [28]; 10 µM in test [29]; 10 µM in test [30]. Further, the “Ratio IC50” value in [31] came to 1.1; in test [32], 1.1; in test [33], 2.45; in test [34] it was 2.45; in test [35], 1.48; in test [36] it was 1.48.
